Each structure is given as a SMILES string. Active and inactive are the calls of the source. No cut-off for these calls is given here.

Common to all, as to assay type: cell-based
Assay [1] relates to Cystic fibrosis transmembrane conductance regulator (Homo sapiens), P13569 [F508del]. Briefly: Corrector activity at mature CFTR F508del mutant (unknown origin) expressed in human CFBE41o- cells assessed as restoration of CFTR level at 27 degreeC at 1 uM preincubated with ARN23765 followed by compound addition measured after 2 hrs by pull down assay.
For assay [2], the target named is Cystic fibrosis transmembrane conductance regulator (Homo sapiens) (UniProt P13569). Briefly: Corrector activity at wild-type CFTR (unknown origin) expressed in human CFBE41o- cells assessed as restoration of CFTR level at 1 uM preincubated with ARN23765 followed by compound addition measured after 2 hrs by pull down assay.
The subject of assay [3] is Cystic fibrosis transmembrane conductance regulator (Homo sapiens), P13569 [F508del]. Briefly: Corrector activity at immature CFTR F508del mutant (unknown origin) expressed in human CFBE41o- cells assessed as restoration of CFTR level at 27 degreeC at 1 uM preincubated with ARN23765 followed by compound addition measured after 2 hrs by pull down assay.
Assay [4] has the same test system. Briefly: Corrector activity at CFTR F508del mutant (unknown origin) expressed in human CFBE41o- cells assessed as restoration of CFTR level at 1 uM preincubated with ARN23765 followed by compound addition measured after 2 hrs by pull down assay.
In assay [5] the target is Cystic fibrosis transmembrane conductance regulator (Homo sapiens) (UniProt P13569). Briefly: Corrector activity at CFTR in human CFBE41o- cells harboring CFTR-/- assessed as restoration of CFTR level at 1 uM preincubated with ARN23765 followed by compound addition measured after 2 hrs by pull down assay.
The test system of assay [6] is Cystic fibrosis transmembrane conductance regulator (Homo sapiens), P13569 [F508del]. Briefly: Corrector activity at CFTR F508del mutant (unknown origin) expressed in human CFBE41o- cells co-expressing HS-YFP assessed as maximum restoration of channel function incubated for 24 hrs by florescence based analysis (reference value: 3.0).
Assay [7] deals with Cystic fibrosis transmembrane conductance regulator (Homo sapiens), P13569 [F508del/R1070W]. Briefly: Corrector activity at CFTR F508del/R1070W mutant (unknown origin) transfected in HEK293 cells assessed as increase in […] at 3 uM incubated for 24 hrs by Western blot analysis.
Assay [8] shares this test system. Briefly: Corrector activity at CFTR F508del/R1070W mutant (unknown origin) transfected in HEK293 cells assessed as increase in protein maturation at 3 uM incubated for 24 hrs by Western blot analysis.
In assay [9] the target is Cystic fibrosis transmembrane conductance regulator (Homo sapiens) (UniProt P13569). Briefly: Corrector activity at CFTR (unknown origin) transfected in HEK293 cells harboring CFTR fragment containing MSD2-NBD2 assessed as increase in expression of CFTR level at 10 nM incubated for 24 hrs by Western blot analysis.
The subject of another assay is HEK293. Briefly: Corrector activity at CFTR F508del/A198Y mutant (unknown origin) transfected in HEK293 cells assessed as increase in protein maturation at 10 nM incubated for 24 hrs by Western blot analysis. The settings on record: Homo sapiens.
The subject of assay [10] is Cystic fibrosis transmembrane conductance regulator (Homo sapiens), P13569 [R170G]. Briefly: Corrector activity at CFTR R170G mutant (unknown origin) transfected in HEK293 cells assessed as increase in […] at 10 nM incubated for 24 hrs by Western blot analysis.
Assay [11] deals with Cystic fibrosis transmembrane conductance regulator (Homo sapiens) (UniProt P13569). Briefly: Corrector activity at CFTR (unknown origin) transfected in HEK293 cells harboring CFTR fragment containing MSD2 assessed as increase in expression of CFTR level at 10 nM incubated for 24 hrs by Western blot analysis.
For assay [12] the target is unchanged. Briefly: Corrector activity at CFTR (unknown origin) transfected in HEK293 cells harboring CFTR fragment containing MSD1-NBD1-R assessed as increase in expression of CFTR level at 10 nM incubated for 24 hrs by Western blot analysis.
Assay [13] deals with Cystic fibrosis transmembrane conductance regulator (Homo sapiens), P13569 [R170G]. Briefly: Corrector activity at CFTR R170G mutant (unknown origin) transfected in HEK293 cells assessed as increase in protein maturation at 10 nM incubated for 24 hrs by Western blot analysis.
For assay [14], the system named is Cystic fibrosis transmembrane conductance regulator (Homo sapiens), P13569 [F508del/R74A]. Briefly: Corrector activity at CFTR F508del/R74A mutant (unknown origin) transfected in HEK293 cells assessed as increase in protein maturation at 10 nM incubated for 24 hrs by Western blot analysis.
Assay [15] deals with Cystic fibrosis transmembrane conductance regulator (Homo sapiens), P13569 [F508del/K68I]. Briefly: Corrector activity at CFTR F508del/K68I mutant (unknown origin) transfected in HEK293 cells assessed as increase in protein maturation at 10 nM incubated for 24 hrs by Western blot analysis.
In assay [16] the test system is Cystic fibrosis transmembrane conductance regulator (Homo sapiens), P13569 [F508del/R1070W]. Briefly: Corrector activity at CFTR F508del/R1070W mutant (unknown origin) transfected in HEK293 cells assessed as increase in […] at 10 nM incubated for 24 hrs by Western blot analysis.
For assay [17], the target named is Cystic fibrosis transmembrane conductance regulator (Homo sapiens) (UniProt P13569). Briefly: Corrector activity at CFTR (unknown origin) transfected in HEK293 cells harboring CFTR fragment containing del-R assessed as increase in expression of CFTR level at 10 nM incubated for 24 hrs by Western blot analysis.
The subject of assay [18] is Cystic fibrosis transmembrane conductance regulator (Homo sapiens), P13569 [F508del/F81A]. Briefly: Corrector activity at CFTR F508del/F81A mutant (unknown origin) transfected in HEK293 cells assessed as increase in protein maturation at 10 nM incubated for 24 hrs by Western blot analysis.
The target of assay [19] is Cystic fibrosis transmembrane conductance regulator (Homo sapiens) (UniProt P13569). Briefly: Corrector activity at CFTR (unknown origin) transfected in HEK293 cells harboring CFTR fragment containing MSD1-NBD1 assessed as increase in expression of CFTR level at 10 nM incubated for 24 hrs by Western blot analysis.
Assay [20] concerns Cystic fibrosis transmembrane conductance regulator (Homo sapiens), P13569 [F508del/W361A]. Briefly: Corrector activity at CFTR F508del/W361A mutant (unknown origin) transfected in HEK293 cells assessed as increase in protein maturation at 10 nM incubated for 24 hrs by Western blot analysis.
The test system of assay [21] is Cystic fibrosis transmembrane conductance regulator (Homo sapiens), P13569 [F508del/R1070W]. Briefly: Corrector activity at CFTR F508del/R1070W mutant (unknown origin) transfected in HEK293 cells assessed as increase in protein maturation at 10 nM incubated for 24 hrs by Western blot analysis.
Assay [22] deals with Cystic fibrosis transmembrane conductance regulator (Homo sapiens), P13569 [F508del/S364F]. Briefly: Corrector activity at CFTR F508del/S364F mutant (unknown origin) transfected in HEK293 cells assessed as increase in protein maturation at 10 nM incubated for 24 hrs by Western blot analysis.
Assay [23] concerns the target Cystic fibrosis transmembrane conductance regulator (Homo sapiens) (UniProt P13569). Briefly: Corrector activity at CFTR (unknown origin) transfected in HEK293 cells harboring CFTR fragment containing MSD1 assessed as increase in half life of CFTR MSD1 at 10 nM incubated for 24 hrs by Western blot analysis.
Assay [24] concerns Cystic fibrosis transmembrane conductance regulator (Homo sapiens), P13569 [F508del]. Briefly: Corrector activity at CFTR F508del mutant (unknown origin) expressed in human CFBE41o- cells assessed as restoration of CFTR level at 25 uM incubated for 30 mins by pull down assay.
The target of assay [25] is Cystic fibrosis transmembrane conductance regulator (Homo sapiens) (UniProt P13569). Briefly: Corrector activity at CFTR (unknown origin) transfected in HEK293 cells harboring CFTR fragment containing MSD1 assessed as increase in expression of CFTR level at 10 nM incubated for 24 hrs by Western blot analysis.
For assay [26], the system named is Cystic fibrosis transmembrane conductance regulator (Homo sapiens), P13569 [F508del/N71I]. Briefly: Corrector activity at CFTR F508del/N71I mutant (unknown origin) transfected in HEK293 cells assessed as increase in protein maturation at 10 nM incubated for 24 hrs by Western blot analysis.
The target in assay [27] is Cystic fibrosis transmembrane conductance regulator (Homo sapiens) (UniProt P13569). Briefly: Corrector activity at wild-type CFTR (unknown origin) expressed in human CFBE41o- cells assessed as restoration of CFTR level at 25 uM incubated for 30 mins by pull down assay.
The target is the same in assay [28]. Briefly: Corrector activity at CFTR (unknown origin) transfected in HEK293 cells harboring CFTR fragment containing MSD2 assessed as effect on CFTR MSD2 stability at 10 nM incubated for 24 hrs by Western blot analysis.
For assay [29] the target is unchanged. Briefly: Corrector activity at wild-type CFTR (unknown origin) expressed in human CFBE41o- cells assessed as restoration of CFTR level at 2.5 uM with UV light irradiation followed by CuAAC implementation by pull down assay.

Sequence of Cystic fibrosis transmembrane conductance regulator (Homo sapiens) (P13569 whole entry, looked up, the tested form may be a part): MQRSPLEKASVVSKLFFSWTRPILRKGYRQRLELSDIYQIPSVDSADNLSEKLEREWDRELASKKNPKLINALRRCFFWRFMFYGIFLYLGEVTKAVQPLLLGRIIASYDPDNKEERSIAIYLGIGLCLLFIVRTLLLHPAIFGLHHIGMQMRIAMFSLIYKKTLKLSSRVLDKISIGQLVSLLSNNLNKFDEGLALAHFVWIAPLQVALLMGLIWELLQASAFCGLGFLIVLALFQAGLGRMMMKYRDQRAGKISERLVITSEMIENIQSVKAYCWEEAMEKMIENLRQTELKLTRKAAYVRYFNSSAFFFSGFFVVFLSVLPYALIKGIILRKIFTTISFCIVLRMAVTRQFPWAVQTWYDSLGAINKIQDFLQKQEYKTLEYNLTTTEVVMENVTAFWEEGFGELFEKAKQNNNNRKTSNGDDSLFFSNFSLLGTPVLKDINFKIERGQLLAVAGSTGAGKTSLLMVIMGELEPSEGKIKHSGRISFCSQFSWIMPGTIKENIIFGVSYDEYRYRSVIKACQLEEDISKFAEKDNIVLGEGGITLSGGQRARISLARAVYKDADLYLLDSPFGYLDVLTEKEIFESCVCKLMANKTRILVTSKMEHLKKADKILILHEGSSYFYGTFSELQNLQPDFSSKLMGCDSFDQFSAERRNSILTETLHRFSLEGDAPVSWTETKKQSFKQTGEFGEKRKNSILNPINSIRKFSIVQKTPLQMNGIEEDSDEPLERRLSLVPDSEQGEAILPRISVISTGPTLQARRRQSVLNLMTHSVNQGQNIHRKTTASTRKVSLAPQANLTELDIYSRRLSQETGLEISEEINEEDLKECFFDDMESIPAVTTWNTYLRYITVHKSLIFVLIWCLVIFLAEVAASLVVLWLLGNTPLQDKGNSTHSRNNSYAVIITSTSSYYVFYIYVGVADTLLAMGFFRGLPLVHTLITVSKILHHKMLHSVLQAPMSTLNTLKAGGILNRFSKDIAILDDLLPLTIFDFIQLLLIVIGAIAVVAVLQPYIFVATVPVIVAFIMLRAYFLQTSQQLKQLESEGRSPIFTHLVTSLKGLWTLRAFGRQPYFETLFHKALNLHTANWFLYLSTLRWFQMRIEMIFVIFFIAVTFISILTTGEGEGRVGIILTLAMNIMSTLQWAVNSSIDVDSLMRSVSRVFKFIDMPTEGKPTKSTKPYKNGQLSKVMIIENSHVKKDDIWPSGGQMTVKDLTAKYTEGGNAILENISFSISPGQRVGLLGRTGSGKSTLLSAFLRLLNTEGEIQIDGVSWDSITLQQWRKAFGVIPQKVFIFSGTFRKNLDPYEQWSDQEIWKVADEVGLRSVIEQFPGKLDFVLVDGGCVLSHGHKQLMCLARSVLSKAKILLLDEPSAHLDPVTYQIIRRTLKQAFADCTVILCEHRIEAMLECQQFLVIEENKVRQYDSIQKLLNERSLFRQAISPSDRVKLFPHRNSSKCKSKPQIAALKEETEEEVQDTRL
Sequence of Cystic fibrosis transmembrane conductance regulator (Homo sapiens), P13569 [F508del/R1070W] (P13569 as listed by the source): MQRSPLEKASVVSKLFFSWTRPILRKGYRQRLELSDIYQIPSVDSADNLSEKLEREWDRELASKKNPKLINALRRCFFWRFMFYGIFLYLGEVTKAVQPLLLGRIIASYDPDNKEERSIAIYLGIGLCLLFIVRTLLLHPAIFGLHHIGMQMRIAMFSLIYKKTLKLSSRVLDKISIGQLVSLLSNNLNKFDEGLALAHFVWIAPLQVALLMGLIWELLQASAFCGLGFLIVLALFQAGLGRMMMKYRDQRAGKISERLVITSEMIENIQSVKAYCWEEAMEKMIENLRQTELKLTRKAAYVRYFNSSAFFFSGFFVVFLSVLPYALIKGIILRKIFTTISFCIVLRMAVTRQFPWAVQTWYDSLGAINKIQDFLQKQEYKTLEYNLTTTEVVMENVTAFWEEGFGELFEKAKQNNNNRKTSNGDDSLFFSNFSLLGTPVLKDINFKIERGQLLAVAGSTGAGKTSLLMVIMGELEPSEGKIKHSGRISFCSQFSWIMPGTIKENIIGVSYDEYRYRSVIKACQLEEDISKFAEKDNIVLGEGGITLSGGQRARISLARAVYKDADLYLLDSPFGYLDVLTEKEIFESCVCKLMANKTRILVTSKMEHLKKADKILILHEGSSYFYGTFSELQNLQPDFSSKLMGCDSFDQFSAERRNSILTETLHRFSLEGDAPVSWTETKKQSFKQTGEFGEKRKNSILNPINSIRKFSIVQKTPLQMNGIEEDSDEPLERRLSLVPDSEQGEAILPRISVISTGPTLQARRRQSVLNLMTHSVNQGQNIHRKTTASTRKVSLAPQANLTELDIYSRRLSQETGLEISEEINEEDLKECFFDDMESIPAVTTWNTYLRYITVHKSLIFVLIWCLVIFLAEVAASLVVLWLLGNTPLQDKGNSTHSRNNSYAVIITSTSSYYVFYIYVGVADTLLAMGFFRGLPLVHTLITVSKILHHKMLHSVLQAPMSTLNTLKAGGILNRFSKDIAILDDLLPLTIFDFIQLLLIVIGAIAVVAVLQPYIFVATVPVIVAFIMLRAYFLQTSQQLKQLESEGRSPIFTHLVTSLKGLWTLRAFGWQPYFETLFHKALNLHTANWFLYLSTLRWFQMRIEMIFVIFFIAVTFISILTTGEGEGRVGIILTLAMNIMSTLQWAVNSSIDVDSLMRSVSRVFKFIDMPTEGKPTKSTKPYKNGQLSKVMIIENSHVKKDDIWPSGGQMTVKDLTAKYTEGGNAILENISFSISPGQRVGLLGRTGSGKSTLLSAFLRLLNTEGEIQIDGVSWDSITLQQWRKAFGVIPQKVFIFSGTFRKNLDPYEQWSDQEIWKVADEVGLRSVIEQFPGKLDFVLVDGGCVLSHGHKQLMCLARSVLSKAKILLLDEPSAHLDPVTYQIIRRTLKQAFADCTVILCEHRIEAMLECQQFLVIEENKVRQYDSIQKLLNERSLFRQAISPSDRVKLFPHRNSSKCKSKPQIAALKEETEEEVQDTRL
Sequence of Cystic fibrosis transmembrane conductance regulator (Homo sapiens), P13569 [F508del] (P13569 as listed by the source): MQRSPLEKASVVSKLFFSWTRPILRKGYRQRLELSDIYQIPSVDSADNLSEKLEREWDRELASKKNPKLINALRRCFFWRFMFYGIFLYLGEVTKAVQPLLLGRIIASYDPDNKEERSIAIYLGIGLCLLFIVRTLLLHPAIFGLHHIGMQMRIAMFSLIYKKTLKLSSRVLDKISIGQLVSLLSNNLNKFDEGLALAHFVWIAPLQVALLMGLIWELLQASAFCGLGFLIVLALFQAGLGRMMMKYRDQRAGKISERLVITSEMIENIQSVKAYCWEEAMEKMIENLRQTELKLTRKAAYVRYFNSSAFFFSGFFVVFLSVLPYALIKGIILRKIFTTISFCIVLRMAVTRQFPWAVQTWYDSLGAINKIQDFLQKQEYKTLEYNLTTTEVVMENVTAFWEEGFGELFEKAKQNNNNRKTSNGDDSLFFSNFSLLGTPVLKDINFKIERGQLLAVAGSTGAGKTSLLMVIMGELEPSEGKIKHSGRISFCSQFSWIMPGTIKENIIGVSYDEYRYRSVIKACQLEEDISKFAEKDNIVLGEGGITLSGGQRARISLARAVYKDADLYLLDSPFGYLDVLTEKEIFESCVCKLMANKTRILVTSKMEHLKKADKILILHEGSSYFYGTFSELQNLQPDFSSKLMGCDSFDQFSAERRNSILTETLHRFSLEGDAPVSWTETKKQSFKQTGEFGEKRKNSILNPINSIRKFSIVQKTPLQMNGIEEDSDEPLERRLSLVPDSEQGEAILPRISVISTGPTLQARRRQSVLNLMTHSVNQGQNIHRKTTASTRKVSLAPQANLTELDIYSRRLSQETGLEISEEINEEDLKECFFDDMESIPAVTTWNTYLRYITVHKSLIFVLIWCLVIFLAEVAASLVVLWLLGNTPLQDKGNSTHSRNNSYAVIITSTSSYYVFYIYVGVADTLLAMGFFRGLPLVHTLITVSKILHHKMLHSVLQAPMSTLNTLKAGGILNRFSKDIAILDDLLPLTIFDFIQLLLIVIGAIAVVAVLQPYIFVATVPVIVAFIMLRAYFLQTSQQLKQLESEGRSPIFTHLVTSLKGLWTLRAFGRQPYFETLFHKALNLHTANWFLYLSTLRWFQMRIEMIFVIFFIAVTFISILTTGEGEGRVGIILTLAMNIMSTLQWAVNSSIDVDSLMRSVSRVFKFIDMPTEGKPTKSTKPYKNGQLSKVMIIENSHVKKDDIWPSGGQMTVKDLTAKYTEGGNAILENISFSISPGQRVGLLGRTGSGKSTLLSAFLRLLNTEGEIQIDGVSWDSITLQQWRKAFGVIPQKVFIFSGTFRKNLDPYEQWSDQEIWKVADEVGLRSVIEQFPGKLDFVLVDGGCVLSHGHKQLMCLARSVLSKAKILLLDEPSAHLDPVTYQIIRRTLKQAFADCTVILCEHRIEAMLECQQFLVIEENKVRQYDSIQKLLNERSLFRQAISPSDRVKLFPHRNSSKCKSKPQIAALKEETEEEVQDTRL

Turning to `C[C@H]1NC(=O)N[C@H]1CCCCCC(=O)NCCOCCOCCOCCn1cc(-c2ccc(O[C@H]3CCCc4c(C(F)(F)F)nn(-c5cccc(C(=O)N(C)c6ccc(C7(C(F)(F)F)N=N7)cc6)c5)c43)cc2)nn1`, the outcome in assay [1] and in assay [3] was Active. For the same molecule, the result in assay [2], in [4] and in assay [5] was inactive.

As to `C[C@H]1NC(=O)N[C@H]1CCCCCC(=O)NCCOCCOCCOCCn1cc(CCC2(CCNC(=O)c3ccc(O[C@H]4CCCc5c(C(F)(F)F)nn(-c6cccc(C(=O)N(C)c7ccc8c(c7)OC(F)(F)O8)c6)c54)cc3)N=N2)nn1`, the outcome in assay [1] and in assay [3] was Active. Also, the outcome in assay [2], in assay [4] and in [5] was inactive. The Activity in assay [6] is 2.8.

Consider `CC(C)(CO)c1cc2cc(NC(=O)C3(c4ccc5c(c4)OC(F)(F)O5)CC3)c(F)cc2n1C[C@@H](O)CO`, for which the result in assay [7] and in assay [8] was Active.

Regarding `CN(C(=O)c1cccc(-n2nc(C(F)(F)F)c3c2[C@@H](Oc2ccc(C(=O)O)cc2)CCC3)c1)c1ccc2c(c1)OC(F)(F)O2`, the result in [9], in [11], in assay [24], in assay [27] and in assay [28] was inactive. Further, the Activity result in the assay with HEK293 was “Not active; Protein Maturation Markedly Reduced Or Abolished”; in assay [14], “Not active; Slightly Reduced Protein Maturation”; in assay [18], “Not active; Protein Maturation Markedly Reduced Or Abolished”; in assay [20] it was “Not active; Protein Maturation Markedly Reduced Or Abolished”; in [22], “Not active; Slightly Reduced Protein Maturation”. The outcome in [10], in assay [12], in assay [13], in [15], in assay [16] and in assay [17] was Active. Also, the result in assay [19], in assay [21], in [23], in assay [25] and in assay [26] was Active.

Turning to `C#Cc1ccc(O[C@H]2CCCc3c(C(F)(F)F)nn(-c4cccc(C(=O)N(C)c5ccc(C6(C(F)(F)F)N=N6)cc5)c4)c32)cc1`, the result in assay [29] was inactive.

(Values after ChEMBL document CHEMBL6153119, “Target Identification with Live-Cell Photoaffinity Labeling and Mechanism of Action Elucidation of ARN23765, a Highly Potent CFTR Corrector” (J Med Chem, 2025).)
